Read-outs that look alike come from different tables or passages of the source.
Molecular target: Active Human ERK2 (hERK2) (Homo sapiens (Human), UniProt P28482)
Experiment: Active Human ERK2 (hERK2) Activity Assay (IMAP-FP)
Type: biochemical
Procedure, shortened: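 Reaction contains 0.5 nM activated hERK2, 900 nM unlabeled plus 80 nM labeled peptide and 30 μM ATP, run 60 min. Quenched with IMAP binding beads in buffer with 24 mM NaCl; fluorescence polarization read after 60 min binding equilibration.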

[1] = phosphorylated active hERK2, 30 μM ATP, average, read-out: ERK 2 Human average IC50
[2] = read-out: AERK2 IC50 (Active human ERK2 Activity Assay)

Active Human ERK2 (hERK2), sequence (P28482 whole entry): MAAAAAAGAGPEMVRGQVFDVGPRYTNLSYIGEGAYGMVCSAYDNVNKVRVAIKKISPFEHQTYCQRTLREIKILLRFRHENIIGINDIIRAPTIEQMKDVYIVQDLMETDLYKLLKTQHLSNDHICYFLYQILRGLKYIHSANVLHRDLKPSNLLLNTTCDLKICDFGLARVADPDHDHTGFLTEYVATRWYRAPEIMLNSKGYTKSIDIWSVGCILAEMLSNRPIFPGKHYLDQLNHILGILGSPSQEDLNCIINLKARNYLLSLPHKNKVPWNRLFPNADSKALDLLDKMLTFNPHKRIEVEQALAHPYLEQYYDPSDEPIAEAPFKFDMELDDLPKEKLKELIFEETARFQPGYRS

Compound | IC50 [1] | IC50 [2]
CN1CC[C@H](CNC(=O)Nc2cc3[nH]nc(-c4ccc(F)cc4)c3cn2)C1 [Example 322] | 1.17 nM | 
COC[C@@H](NC(=O)Nc1cc2[nH]nc(C3CC3)c2cn1)c1ccccc1 [Example 160] | 1.38 nM | 
Cc1cc(-c2n[nH]c3cc(NC(=O)NC4CC(C)(C)Oc5ccccc54)ncc23)ccn1 (stereo not shown) [Example 271] | 5.93 nM | 
C[C@@H](NC(=O)Nc1cc2[nH]nc(-c3ccnc(F)c3)c2cn1)c1ccc(F)c(Cl)c1 [Example 81, 1-[(1R)-1-(3-chloro-4-fluorophenyl)ethyl]-3-[3-(2-fluoropyridin-4-yl)-1H-pyrazolo[4,3-c]pyridin-6-yl]urea] | 1.91 nM | 
COc1ccccc1CNC(=O)Nc1cc2[nH]nc(-c3ccnc(C)c3)c2cn1 [Example 529] | 0.293 nM | 
COc1cccc(F)c1CN1CCC[C@@H](NC(=O)Nc2cc3[nH]nc(-c4ccc(C#N)cc4)c3cn2)C1 [Example 655] | 2.27 nM | 
CC1=NOC(C)(CNC(=O)Nc2cc3[nH]nc(-c4ccnc(C)c4)c3cn2)C1 (stereo not shown) [Example 192] | 21.7 nM | 
COc1ccnc([C@H](C)NC(=O)Nc2cc3[nH]nc(-c4ccnc(C)c4)c3cn2)c1 [Example 230] | 650 nM | 
CO[C@H](C)CNC(=O)Nc1cc2[nH]nc(-c3ccc(F)cc3)c2cn1 [Example 634] | 1.3 nM | 
CN1C[C@H](NC(=O)Nc2cc3[nH]nc(-c4ccc(F)cc4)c3cn2)[C@@H](c2ccccc2)C1 [Example 213] | 42.1 nM | 
Cc1cc(-c2n[nH]c3cc(NC(=O)NCc4c(C)cccc4Cl)ncc23)ccn1 [Example 444] | 1.12 nM | 
CO[C@H]1CN(C(=O)c2n[nH]c3cc(NC(=O)N[C@H](C)c4ccccc4)ncc23)C[C@@H]1O [Example 130] | 1970 nM | 
C[C@@H](NC(=O)Nc1cc2[nH]nc(C(=O)NCC3CCCC(O)C3)c2cn1)c1ccccc1 (stereo partly shown) [Example 132] | 3.2 nM | 
COC[C@H](NC(=O)Nc1cc2[nH]nc(-c3ccnc(F)c3)c2cn1)c1ccccc1 [Example 601] | 20.6 nM | 
Cc1cc(-c2n[nH]c3cc(NC(=O)N[C@@H](C)c4ccc(C#N)cc4)ncc23)ccn1 [Example 233] | 42.5 nM | 
Cc1cc(-c2n[nH]c3cc(NC(=O)N[C@@H]4CN(C)C[C@H]4F)ncc23)ccn1 [Example 329, 1-((3R,4R)-4-fluoro-1-methylpyrrolidin-3-yl)-3-(3-(2-methylpyridin-4-yl)-1H-pyrazolo[4,3-c]pyridin-6-yl)urea] | 56.5 nM | 
Cc1cc(-c2n[nH]c3cc(NC(=O)NCc4ccc(F)c(Cl)c4)ncc23)ccn1 [Example 56, 1-(3-chloro-4-fluorobenzyl)-3-[3-(2-methylpyridin-4-yl)-1H-pyrazolo[4,3-c]pyridin-6-yl]urea] | 0.411 nM | 0.2 to 1.7 nM
COCC(O)CNC(=O)c1n[nH]c2cc(NC(=O)N[C@H](C)c3ccccc3)ncc12 (stereo partly shown) [Example 133] | 11 nM | 
Cc1cc(-c2n[nH]c3cc(NC(=O)N[C@H]4CCCOc5ccccc54)ncc23)ccn1 [Example 284] | 8.28 nM | 
C[C@@H](NC(=O)Nc1cc2[nH]nc(-c3ccn(C4COC4)n3)c2cn1)c1ccccc1 [Example 638] | 8.99 nM | 
CC(F)(F)c1n[nH]c2cc(NC(=O)NCc3ccccc3)ncc12 [Example 667] | 259 nM | 
COC[C@@H](NC(=O)Nc1ncc2c(-c3ccnc(F)c3)n[nH]c2c1F)c1ccccc1 [Example 543] | 0.272 nM | 
C[C@@H](NC(=O)Nc1cc2[nH]nc(C(C)(F)F)c2cn1)c1ccc(F)cc1 [Example 665] | 193 nM | 

Compound | IC50 [1] | IC50 [2]
COC[C@@H](NC(=O)Nc1cc2[nH]nc(C3CC3(F)F)c2cn1)c1ccccc1 (stereo partly shown) [Example 163] | 4.89 nM | 
Cc1cc(-c2n[nH]c3cc(NC(=O)NCc4ccsc4)ncc23)ccn1 [Example 475] | 0.385 nM | 
Cc1cc(-c2n[nH]c3cc(NC(=O)NCc4ccc[n+]([O-])c4)ncc23)ccn1 [Example 508] | 11.6 nM | 
COC[C@@H](NC(=O)Nc1cc2[nH]nc(-c3ccc(N4CCOCC4)nc3)c2cn1)c1ccc(F)cc1 [Example 297] | 1.05 nM | 
Cc1cc(-c2n[nH]c3cc(NC(=O)Nc4ccccc4)ncc23)ccn1 [Example 61, 1-[3-(2-methylpyridin-4-yl)-1H-pyrazolo[4,3-c]pyridin-6-yl]-3-phenylurea] | 127 nM | 
C[C@@H](NC(=O)Nc1cc2[nH]nc(-c3cnn(C4COC4)c3)c2cn1)c1ccccc1 [Example 647] | 0.464 nM | 
CCN(CC)CCC(NC(=O)Nc1cc2[nH]nc(-c3ccnc(C)c3)c2cn1)c1ccccc1 (stereo not shown) [Example 406] | 1.06 nM | 
Cc1cc(-c2n[nH]c3cc(NC(=O)NCC4CCO4)ncc23)ccn1 (stereo not shown) [Example 484] | 376 nM | 
CC(F)(F)c1n[nH]c2cc(NC(=O)NCc3ccc(F)cc3)ncc12 [Example 668] | 647 nM | 
Cn1cc(-c2n[nH]c3cc(NC(=O)NCc4ccc(F)c(Cl)c4)ncc23)cn1 [Example 60, 1-(3-chloro-4-fluorobenzyl)-3-[3-(1-methyl-1H-pyrazol-4-yl)-1H-pyrazolo[4,3-c]pyridin-6-yl]urea] | 0.251 nM | 0.2 to 1.7 nM
Cc1cc(-c2n[nH]c3cc(NC(=O)NC(CO)c4cc(F)cc(F)c4)ncc23)ccn1 (stereo not shown) [Example 365] | 0.603 nM | 
C[C@@H](NC(=O)Nc1cc2[nH]nc(-c3ccn(C)n3)c2cn1)c1ccccc1 [Example 90, 1-[3-(1-methyl-1H-pyrazol-3-yl)-1H-pyrazolo[4,3-c]pyridin-6-yl]-3-[(1R)-1-phenylethyl]urea] | 2.19 nM | 
Cc1ccnc(C(C)NC(=O)Nc2cc3[nH]nc(-c4ccnc(C)c4)c3cn2)c1 (stereo not shown) [Example 498] | 2.82 nM | 
Cc1cc(-c2n[nH]c3cc(NC(=O)N[C@@H](c4ccccc4)[C@@H]4CCCO4)ncc23)ccn1 [Example 554] | 0.262 nM | 
C[C@@H](NC(=O)Nc1cc2[nH]nc(C(=O)NCC3(O)CCC3)c2cn1)c1ccccc1 [Example 136] | 11.9 nM | 
[2H]C([2H])([2H])OC[C@@H](NC(=O)Nc1cc2[nH]nc(C3CC3)c2cn1)c1ccccc1 [Example 161] | 5.8 nM | 
COC[C@@H](NC(=O)Nc1cc2[nH]nc(-c3ccc4nn(C)cc4c3)c2cn1)c1ccccc1 [Example 613] | 0.297 nM | 
Cc1cc(-c2n[nH]c3cc(NC(=O)NC[C@H]4COCCO4)ncc23)ccn1 [Example 549] | 2.62 nM | 
COC[C@@H](NC(=O)Nc1cc2[nH]nc(-c3ccnc(N4CCOCC4)c3)c2cn1)c1ccc(F)cc1 [Example 298] | 1.17 nM | 
C[C@@H](NC(=O)Nc1cc2[nH]nc(-c3cnn(C)c3)c2cn1)C1CCCCC1 [Example 589] | 0.823 nM | 
Cc1cc(-c2n[nH]c3cc(NC(=O)NCc4ccc(C#N)cc4)ncc23)ccn1 [Example 445] | 3.73 nM | 
Cc1cc(-c2n[nH]c3cc(NC(=O)NCc4ccc(Cl)cc4C)ncc23)ccn1 [Example 515] | 2.45 nM | 
Cc1cc(-c2n[nH]c3cc(NC(=O)N[C@H]4CN(C)C[C@@H]4c4ccccc4F)ncc23)ccn1 [Example 185] | 37.3 nM | 

Compound | IC50 [1] | IC50 [2]
Cc1cc(-c2n[nH]c3cc(NC(=O)NC4(c5ccc(Cl)cc5)CCOCC4)ncc23)ccn1 [Example 77, 1-[4-(4-chlorophenyl)tetrahydro-2H-pyran-4-yl]-3-[3-(2-methylpyridin-4-yl)-1H-pyrazolo[4,3-c]pyridin-6-yl]urea] | 15.1 nM | 
C[C@@H](NC(=O)Nc1cc2[nH]nc(-c3cncnc3)c2cn1)c1ccc(F)cc1 [Example 671] | 2.33 nM | 
CC[C@H](NC(=O)Nc1cc2[nH]nc(-c3ccnc(C)c3)c2cn1)c1ccccn1 [Example 217] | 41.6 nM | 
Cc1cc(-c2n[nH]c3cc(NC(=O)NCC4(O)CCN(C)CC4)ncc23)ccn1 [Example 388] | 6.66 nM | 
Cc1cc(-c2n[nH]c3cc(NC(=O)N[C@H]4CN(C)C[C@@H]4F)ncc23)ccn1 [Example 328, 1-((3S,4S)-4-fluoro-1-methylpyrrolidin-3-yl)-3-(3-(2-methylpyridin-4-yl)-1H-pyrazolo[4,3-c]pyridin-6-yl)urea] | 1.57 nM | 
COCCNC(=O)Nc1cc2[nH]nc(-c3ccccc3)c2cn1 [Example 627] | 6.09 nM | 
COCCNC(=O)Nc1cc2[nH]nc(-c3cc(C)nc(OC)c3)c2cn1 [Example 631] | 17.4 nM | 
C[C@@H](NC(=O)Nc1cc2[nH]nc(CO)c2cn1)c1ccccc1 [Example 615] | 6.16 nM | 
C[C@@H](NC(=O)Nc1cc2[nH]nc(-c3ccnc(F)c3)c2cn1)C1CCCCC1 [Example 593] | 3.34 nM | 
Cc1cc(-c2n[nH]c3cc(NC(=O)N[C@@H]4CNC[C@@H]4c4ccccc4)ncc23)ccn1 [Example 180] | 4.58 nM | 
Cc1cc(-c2n[nH]c3cc(NC(=O)NCc4csc(C)n4)ncc23)ccn1 [Example 43, 1-[3-(2-methylpyridin-4-yl)-1H-pyrazolo[4,3-c]pyridin-6-yl]-3-[(2-methyl-1,3-thiazol-4-yl)methyl]urea] | 0.934 nM | 0.2 to 1.7 nM
Cc1cc(-c2n[nH]c3cc(NC(=O)NCc4ccc(F)cc4C(F)(F)F)ncc23)ccn1 [Example 512] | 2.94 nM | 
Cc1cc(-c2n[nH]c3cc(NC(=O)N[C@H](c4ccc(F)cc4)C(F)(F)F)ncc23)ccn1 [Example 279] | 113 nM | 
CO[C@@H](C)CNC(=O)Nc1cc2[nH]nc(-c3ccnc(C)c3)c2cn1 [Example 597] | 0.945 nM | 
COC[C@@H](NC(=O)Nc1cc2[nH]nc(-c3ccc(F)cc3)c2cn1)c1ccccn1 [Example 500] | 0.778 nM | 
Cc1cc(-c2n[nH]c3cc(NC(=O)NC(CCO)c4ccccc4)ncc23)ccn1 (stereo not shown) [Example 334] | 0.333 nM | 
Cc1cc(-c2n[nH]c3cc(NC(=O)NC4CNc5ccccc5C4)ncc23)ccn1 (stereo not shown) [Example 501] | 0.958 nM | 
Cc1cc(-c2n[nH]c3cc(NC(=O)N[C@H](C(=O)O)C(C)C)ncc23)ccn1 [Example 452] | 2240 nM | 
Cc1cc(-c2n[nH]c3cc(NC(=O)NCC4CCN(Cc5ccccc5)C4)ncc23)ccn1 (stereo not shown) [Example 410] | 2.65 nM | 
Cc1cc(-c2n[nH]c3cc(NC(=O)Nc4noc5cccnc45)ncc23)ccn1 [Example 493] | 0.428 nM | 
Cc1cc(-c2n[nH]c3cc(NC(=O)N[C@H]4CN[C@H](c5ccccc5)C4)ncc23)ccn1 [Example 374] | 351 nM | 
